Measured values from patent US5750555A, “Bis-indolyl maleinimide or indolopyrrolo carbazole containing an amino acid as PKC inhibitors” (Goedecke Aktiengesellschaft, priority 1992, dated 1998).
Like-named read-outs stand apart in the source and are kept apart here. Where a SMILES comes first, the peptide text is derived from it. The star is where a group is joined. X1 = Cn1cc(C2=C(c3cn(CCC(=O)*)c4ccccc34)C(=O)NC2=O)c2ccccc21

Legend:
protein kinase C (PKC) = experiment: Enzyme test PKC with peptide substrate [Ser^25] PKC (19-31), phosphorus^32 phosphate incorporation; assay type: biochemical, rat
Protocol: The enzyme protein kinase C (PKC) is purified from rat brain. Its activity is determined by way of the incorporation of phosphorus ^32 -labelled phosphate into a synthetic peptide which is derived from the PKC "pseudosubstrate" sequence (arnino acids 19 to 31 of the PKC sequence with alanine in position 25 substituted by serine). A reaction batch of 200 μL contains the following components: 50 mM Tris HCl, pH 7.5, 5 mM MgCl2, 1 mM DTT, 4 μM free Ca^2+, 10 μM ATP, 1 μg phosphatidylserine, 0.2 μg 1,2-diolein, as well as 0.3 μg peptide substrate. The batch is preincubated for 4 minutes at 30° C. and the reaction then started by the addition of 5 nm PKC. After incubation for 5 minutes at 30° C., the reaction is stopped with 0.73% H3 PO4, and the sample then filtered over a nitrocellulose filter (0.1 μm pore size). The phosphate incorporation is determined by means of Cerenkov counting in a scintillation counter. […]

[1] = biological target: Myosin Light Chain Kinase; experiment: Inhibition of myosin light chain kinase (selectivity test); assay type: biochemical; conditions: Table 2; for IC50: Myosin Light Chain Kinase, read-out: Inhibition of the Protein Kinases IC50: MLC Kinase; for Ratio of IC50 MLC Kinase/IC50 C Kinase: selectivity ratio MLC Kinase over PKC
Protocol: The selectivity of these compounds with regard to other kinases, such as myosin light chain kinase, was tested on the basis of some examples. These values are set out in the following Table 2.

[2] = Table 1, PKC purified from rat brain, 10 μM ATP, pH 7.5, 30° C., 5 minutes, read-out: Inhibition IC50, Enzyme Test PKC With Peptide Substrate [Ser^25] PKC (19-31)
[3] = Table 2, PKC with peptide substrate [Ser^25] PKC (19-31), read-out: Inhibition of the Protein Kinases IC50: PKC

Row | Molecule | IC50 (protein kinase C (PKC); [2]) [nM] | IC50 (protein kinase C (PKC); [3]) [nM] | IC50 [1] [nM] | Ratio of IC50 MLC Kinase/IC50 C Kinase [1]
1 | 2-[(1-Methyl)-1H-indol-3-yl]-3-[1-(3-β-alanylamino-propyl)-1H-indol-3-yl]-maleinimide [Example 1a] | 6.3 | 6.3 | 1900 | 302
2 | 12-[2-(L-Alanyl-L-arginyl)-aminopropyl]-6,7,12,13-tetrahydro-13-methyl-5,7- dioxo-5H-indolo[2,3-a]pyrrolo-[3,4-c]carbazole [Example 9] | 190 |  |  | 
3 | Cn1cc(C2=C(c3cn(CCCN)c4ccccc34)C(=O)NC2=O)c2ccccc21 [A, 3[1(3-aminopropyl)-3-indolyl)-4-(1-methyl-3-indolyl)-1H-pyrrole-2,5-dione, reference compound] |  | 130 | 1300 | 10
4 | Cn1cc(C2=C(c3cn(CCCNC(=O)[C@@H](N)CO)c4ccccc34)C(=O)NC2=O)c2ccccc21 [Example 1, 2-[(1-Methyl)-1H-indol-3-yl]-3-(1-(3-L-serylaminopropyl)-1H-indol-3-yl)-maleinimide] | 14 | 14 | 4600 | 328
5 | Cn1cc(C2=C(c3cn(CCCNC(=O)CCN)c4ccccc34)C(=O)NC2=O)c2ccccc21 [Example 1b, 2-[(1-Methyl)-1H-indol-3-yl]-3-[1-(3-β-alanylaminopropyl)-1H-indol-3-yl]-maleinimide] | 23 | 23 | 2400 | 104
6 | C[C@@H](N)C(=O)NCCCn1cc(C2=C(c3cn(C)c4ccccc34)C(=O)NC2=O)c2ccccc21 [Example 2, 2-[(1-Methyl)-1H-indol-3-yl)-3-[1-(3-D-alanylaminopropyl)-1H-indol-3-yl]-maleinimide] | 28 |  |  | 
7 | C[C@H](N)C(=O)NCCCCn1cc(C2=C(c3cn(C)c4ccccc34)C(=O)NC2=O)c2ccccc21 [Example 2a, 2-[(1-Methyl)-1H-indol-3-yl]-3-[1-(4-L-alanylaminobutylyl)-1H-indol-3-yl)-maleinimide] | 25 |  |  | 
8 | Cn1cc(C2=C(c3cn(CCCCNC(=O)[C@@H](N)CCCNC(=N)N)c4ccccc34)C(=O)NC2=O)c2ccccc21 [Example 2b, 2-[(1-Methyl)-1H-indol-3-yl]-3-[1-(4-L-arginylaminobutyl)-1H-indol-3-yl]-maleinimide] | 220 |  |  | 
9 | C[C@H](N)C(=O)NCCCCCn1cc(C2=C(c3cn(C)c4ccccc34)C(=O)NC2=O)c2ccccc21 [Example 2c, 2-[(1-Methyl)-1H-indol-3-yl]-3-[1-(5-L-alanylaminopentyl)-1H-indol-3-yl]-maleinimide] | > 100 |  |  | 
10 | C[C@H](N)C(=O)NCCCCCCCCCn1cc(C2=C(c3cn(C)c4ccccc34)C(=O)NC2=O)c2ccccc21 [Example 2d, 2-[(l-Methyl)-1H-indol-3-yl]-3-[1-(9-L-alanylaminononyl)-1H-indol-3-yl)-maleinimide] | > 1000 |  |  | 
11 | Cn1cc(C2=C(c3cn(CCCCCCCCCNC(=O)[C@@H](N)CO)c4ccccc34)C(=O)NC2=O)c2ccccc21 [Example 2e, 2-[(1-Methyl)-1H-indol-3-yl]-3-[1-(9-L-serylaminononyl)-1H-indol-3-yl]-maleinimide] | > 1000 |  |  | 
12 | C[C@H](N)C(=O)NCCCCCCCCn1cc(C2=C(c3cn(C)c4ccccc34)C(=O)NC2=O)c2ccccc21 [Example 2f, 2-[(1-Methyl)-1H-indol-3-yl]-3-[1-(9-L-alanylaminooctyl)-1H-indol-3-yl)-maleinimide] | 330 |  |  | 
13 | Cn1cc(C2=C(c3cn(CCCNC(=O)CCCCNC(=O)[C@@H](N)CO)c4ccccc34)C(=O)NC2=O)c2ccccc21 [Example 3, 2-[(1-Methyl)-1H-indol-3-yl]-3-[1-[3-(5-L-serylaminopentanoyl)-aminopropyl)-1H-indol-3-yl)-maleinimide] | 61 |  |  | 
14 | C[C@H](N)C(=O)NCC(=O)NCCCn1cc(C2=C(c3cn(C)c4ccccc34)C(=O)NC2=O)c2ccccc21 [Example 4, 2-[(1-Methyl)-1H-indol-3-yl)-3-[1-[3-(L-alanylglycyl)-aminopropyl]-1H-indol-3-yl]] | 36 |  |  | 
15 | C[C@H](N)C(=O)NCCC(=O)NCCCn1cc(C2=C(c3cn(C)c4ccccc34)C(=O)NC2=O)c2ccccc21 [Example 4a, 2-[(1-Methyl)-1H-indol-3-yl]-3-[1-[3-(L-alanyl-β-alanyl)-aminopropyl]-1H-indol-3-yl)-maleinimide] | 18 |  |  | 
16 | C[C@H](NC(=O)CCn1cc(C2=C(c3cn(C)c4ccccc34)C(=O)NC2=O)c2ccccc21)C(=O)O [Example 5, 3-[3-[4-(1-Methylindol-3-yl)-1H-pyrrole-2,5-dion-3-yl]-indol-1-yl)-propionyl-L-alanine] | 580 |  |  | 
17 | C[C@H](NC(=O)CCn1cc(C2=C(c3cn(C)c4ccccc34)C(=O)NC2=O)c2ccccc21)C(=O)NCC(=O)N[C@@H](CCCCN)C(N)=O [Example 7, 3-[3-[4-(1-Methylindol-3-yl)-1H-pyrrole-2,5-dion-3-yl]-indol-1-yl)-propionyl-L-alanylglycyl-L-lysinamide] | 230 |  |  | 
18 | C[C@H](NC(=O)[C@H](Cc1ccccc1)NC(=O)[C@H](CCCNC(=N)N)NC(=O)[C@H](CC(N)=O)NC(=O)[C@H](CCCCN)NC(=O)CCn1cc(C2=C(c3cn(C)c4ccccc34)C(=O)NC2=O)c2ccccc21)C(N)=O [Example 7a, 3-[3-[4-(1-methylindol-3-yl)-1H-pyrrole-2,5-dion-3-yl]-indol-1-yl)-propionyl-L-lysyl-L-asparaginyl-L-arginyl-L-phenylalanyl-L-alaninamide] (X1-KNRFA-NH2) | > 100 |  |  | 
19 | C[C@H](NC(=O)CNC(=O)CNC(=O)CCn1cc(C2=C(c3cn(C)c4ccccc34)C(=O)NC2=O)c2ccccc21)C(N)=O [Example 7b, 3-[3-[4-(1-methylindol-3-yl)-1H-pyrrole-2,5-dion-3-yl]-indol-1-yl)-propionylglycylglycyl-L-alaninamide] | > 100 |  |  | 
20 | Cn1cc(C2=C(c3cn(CCC(=O)NCC(=O)NCC(=O)N[C@@H](CO)C(N)=O)c4ccccc34)C(=O)NC2=O)c2ccccc21 [Example 7c, 3-[3-[4-(1-methylindol-3-yl)-1H-pyrrole-3,5-dion-3-yl]-indol-1-yl]-propionylglycylglycyl-L-serylamide] | 200 |  |  | 
21 | C[C@H](NC(=O)CNC(=O)[C@H](CO)NC(=O)CCn1cc(C2=C(c3cn(C)c4ccccc34)C(=O)NC2=O)c2ccccc21)C(N)=O [Example 7d, 3-[3-[4-(1-methylindol-3-yl)-1H-pyrrole-2,5-dion-3-yl)-indol-1-yl)-propionyl-L-serylglycyl-L-alaninamide] | > 1000 |  |  | 
22 | C[C@H](N)C(=O)NCCCn1c2ccccc2c2c3c(c4c5ccccc5n(C)c4c21)C(=O)NC3=O [Example 8, 12-[2-(3-L-Alanyl)-aminopropyl)-6,7,12,13-tetrahydro-13-methyl-5,7-dioxo-5H-indolo[2,3-a]pyrrolo[3,4-c]-carbazole] | 38 |  |  | 
23 | C[C@H](N)C(=O)NCCCCn1c2ccccc2c2c3c(c4c5ccccc5n(C)c4c21)C(=O)NC3=O [Example 10, 12-[2-(4-L-Alanyl)-aminobutyl]-6,7,12,13-tetrahydro-13-methyl-5,7-dioxo-5H-indolo[2,3-a]pyrrolo[3,4-c]-carbazole] | 9.6 |  |  | 
24 | C[C@H](N)C(=O)NCCCCCn1c2ccccc2c2c3c(c4c5ccccc5n(C)c4c21)C(=O)NC3=O [Example 10a, 12-[2-(5-L-alanyl)-aminopentyl]-6,7,12,13-tetrahydro-13-methyl-5,7-dioxo-5H-indolo[2,3-a]pyrrolo-[3,4-c]carbazole] | 53 |  |  | 
